Assay results reported in PubChem BioAssay (NCI).
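Cells were grown in 96-well plates and exposed to each compound for 48 hours at five concentrations; endpoints were interpolated linearly between bracketing concentrations, or set to the highest concentration if not reached. GI50 marks 50% less growth. The concentration for full growth arrest is given as TGI.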

Columns and labels:
Assay in all cases: DTP human tumour cell line panel, 48 h
CCRF-CEM leukemia = tested on: CCRF-CEM leukemia
SF-268 CNS = tested on: SF-268 CNS
SN12C renal = tested on: SN12C renal
SF-539 CNS = tested on: SF-539 CNS
SF-295 CNS = tested on: SF-295 CNS
HOP-92 NSCLC = tested on: HOP-92 NSCLC
K-562 leukemia = tested on: K-562 leukemia
HL-60(TB) leukemia = tested on: HL-60(TB) leukemia
A549 NSCLC = tested on: A549 NSCLC

Row | SMILES | TGI (CCRF-CEM leukemia) [µM] | TGI (SF-268 CNS) [µM] | TGI (SN12C renal) [µM] | TGI (SF-539 CNS) [µM] | TGI (SF-295 CNS) [µM] | TGI (HOP-92 NSCLC) [µM] | TGI (K-562 leukemia) [µM] | TGI (HL-60(TB) leukemia) [µM] | TGI (A549 NSCLC) [µM] | GI50 (CCRF-CEM leukemia) [µM] | GI50 (SN12C renal) [µM] | GI50 (SF-539 CNS) [µM] | GI50 (K-562 leukemia) [µM] | GI50 (HL-60(TB) leukemia) [µM] | GI50 (A549 NSCLC) [µM] | GI50 (SF-268 CNS) [µM] | GI50 (SF-295 CNS) [µM] | GI50 (HOP-92 NSCLC) [µM]
1 | CC(C)(C)CC(C)(C)c1cc2c(O)c(c1)Cc1cc(C(C)(C)CC(C)(C)C)cc(c1O)Cc1cc(C(C)(C)CC(C)(C)C)cc(c1O)Cc1cc(C(C)(C)CC(C)(C)C)cc(c1O)Cc1cc(C(C)(C)CC(C)(C)C)cc(c1O)Cc1cc(C(C)(C)CC(C)(C)C)cc(c1O)Cc1cc(C(C)(C)CC(C)(C)C)cc(c1O)Cc1cc(C(C)(C)CC(C)(C)C)cc(c1O)C2 | > 100 | > 100 | > 100 | > 100 | > 100 | > 100 | > 100 | > 100 | > 100 |  |  |  |  |  |  |  |  | 
2 | CC1=CC[C@@H]2C(=O)C=CC=C[C@H]12.[C-]#[O+].[C-]#[O+].[C-]#[O+].[Fe] | > 100 |  | > 100 | > 100 |  |  | > 100 | > 100 | > 100 | > 100 | > 100 | > 100 | > 100 | > 100 | > 100 |  |  | 
3 | CCCCCCCCCCCc1cc(=O)c2c(O)cccc2o1 | 83.7 | > 100 | > 100 | > 100 | > 100 | > 100 | > 100 | > 100 | > 100 |  |  |  |  |  |  |  |  | 
4 | CCOc1ccc2c(c1)[n+]([O-])c(-c1ccc([N+](=O)[O-])cc1)c(N)[n+]2[O-] | > 100 | > 100 | > 100 | > 100 | > 100 | > 100 | > 100 | > 100 | > 100 |  |  |  |  |  |  |  |  | 
5 | Cc1cccc(/C=N/N=C(\N)NO)n1 | > 100 | > 100 | > 100 | > 100 | > 100 | 98.3 | > 100 | > 100 | > 100 |  |  |  |  |  |  |  |  | 
6 | CC(C)=CC1(C)/C(=N\O)C(C)(CC(C)C)C(=O)N1O (stereo not given) | > 100 |  | > 100 | > 100 | > 100 | > 100 | > 100 | > 100 | > 100 |  |  |  |  |  |  |  |  | 
7 | COC(=O)CCC(=O)Nc1cc(C)ccc1C | > 100 |  | > 100 | > 100 | > 100 | > 100 | > 100 | > 100 | > 100 |  |  |  |  |  |  |  |  | 
8 | COc1ccccc1N1CCN(CC(O)Cn2c(=O)c3c(OC)nc(C)cc3c(=O)n2-c2ccccc2)CC1 (stereo not given) | > 100 | > 100 | > 100 | > 100 | > 100 | 36 | > 100 | > 100 | > 100 | > 100 | > 100 | 32.6 | > 100 | > 100 | > 100 | 62.1 | 25.8 | 15.7
9 | COc1ccc(/C=C\c2cc(OC)c(OC)c(OC)c2)cc1N/C=C\C(=O)c1c[nH]c2ccccc12 | > 100 | > 100 | > 100 | < 0.01 | > 100 | 3.64 | > 100 |  | > 100 | < 0.01 | 0.0224 | < 0.01 | < 0.01 |  | < 0.01 | < 0.01 | < 0.01 | 0.0137
10 | CCOC(=O)C1=C(Nc2cccc3ccccc23)OCC1=O | > 100 | > 100 | > 100 | > 100 |  | > 100 | > 100 |  | > 100 |  |  |  |  |  |  |  |  | 
11 | C#CCOCn1cnc2c(N)ncnc21 | > 100 | > 100 | > 100 | > 100 | > 100 | > 100 | > 100 |  | > 100 |  |  |  |  |  |  |  |  | 
12 | Cc1c(-c2cc(-c3ccccc3)n[nH]c2=O)c2ccccc2n1C | > 100 | > 100 | > 100 | > 100 | > 100 | > 100 | > 100 | > 100 | > 100 |  |  |  |  |  |  |  |  | 
13 | CC(C)(C)c1cc(C#N)c2c(c1)C(=O)OC2(c1ccccc1)c1ccccc1C#N (stereo not given) | > 100 | > 100 | > 100 | > 100 | > 100 |  | > 100 | > 100 | > 100 |  |  |  |  |  |  |  |  | 
14 | C=CCC(O)c1cc(OC)ccc1OC (stereo not given) | > 100 | > 100 | > 100 | > 100 | > 100 | > 100 | > 100 | > 100 | > 100 |  |  |  |  |  |  |  |  | 
15 | O=C(CC(=O)c1cccc2ccccc12)C(=O)Nc1nccs1 | > 100 | > 100 | > 100 | > 100 | > 100 | > 100 | > 100 | > 100 | > 100 |  |  |  |  |  |  |  |  | 
16 | COc1ccccc1NC(=O)C1=C(C)NC(C)=C(C(=O)Nc2ccccc2OC)C1c1ccc(C2C(C(=O)Nc3ccccc3OC)=C(C)NC(C)=C2C(=O)Nc2ccccc2OC)cc1 | 5.71 | 11.6 | 3.69 | 3.24 | 6.28 | 9.45 | 13.2 | 5.96 | > 60.4 |  |  |  |  |  |  |  |  | 
17 | CNC(=O)NCCCCC(NC(=O)OCc1ccccc1)C(=O)OCc1ccccc1 (stereo not given) | 38.5 |  | 51.1 | 38.5 | 50.3 | 89.2 | > 100 | 32.4 | > 100 |  |  |  |  |  |  |  |  | 
18 | CCN(CC)CCOc1ccccc1-n1c(C)ccc1-c1ccccc1 | 48.6 | 30.6 | 30.5 | 31 | 34.2 | 32.8 | 32 | 40.6 | 32.1 | 18.7 | 15.4 | 16.1 | 10.7 | 20.5 | 16.3 | 15.6 | 16.3 | 12.6
19 | Nc1ncnc2c1N=CN(Oc1ccccc1)N2 |  |  | 43.7 | > 100 | > 100 | > 100 | > 100 |  | > 100 |  |  |  |  |  |  |  |  | 
20 | [N-]=[N+]=Nc1nnc(CCCCc2nnc(N=[N+]=[N-])o2)o1 | > 100 | > 100 | > 100 | > 100 | > 100 | > 100 | > 100 |  | > 100 |  |  |  |  |  |  |  |  | 
21 | OCC(O)C(OC1OC(CO)C(O)C(O)C1O)c1nn(-c2ccc(Cl)cc2)c2nc3cc(Cl)c(Cl)cc3nc12 (stereo not given) | > 100 | > 100 | > 100 | > 100 | > 100 |  | > 100 |  |  |  |  |  |  |  |  |  |  | 
22 | O=c1c2cc(Br)ccc2n(C2OC(CO)C(O)C(O)C2O)c(=S)n1-c1ccccc1 (stereo not given) |  | > 100 | > 100 | > 100 | > 100 | > 100 | > 100 | > 100 | > 100 |  |  |  |  |  |  |  |  | 
23 | COc1cc2ccnc(-c3n[nH]c4cc(OC)c(OC)cc34)c2cc1OC | > 100 | > 100 | > 100 | > 100 | > 100 | > 100 | > 100 | > 100 | > 100 |  |  |  |  |  |  |  |  | 
24 | C=CC(=O)OCCCS(=O)(=O)[O-].C=CC(=O)OCCCS(=O)(=O)[O-].NC1CCCCC1N.[Pt+4] | > 25 | > 25 | > 25 | > 25 | > 25 |  | > 25 | > 25 | > 25 | > 25 | > 25 | > 25 | > 25 | > 25 | > 25 | > 25 | > 25 | 
25 | O=C1c2ccccc2-c2c1c1ccc([N+](=O)[O-])cc1c(=O)n2CCN1CCOCC1 | > 100 | > 100 | > 100 |  | > 100 | > 100 | > 100 |  | > 100 | 20.1 | 59.3 |  | > 100 |  | > 100 | > 100 | 92 | 26.2
26 | CC/C(=N/O)C(C)C(=O)CCC(=O)Nc1ccc(Cl)cc1 (stereo not given) | > 100 | > 100 | > 100 | > 100 | > 100 |  | > 100 | > 100 | > 100 |  |  |  |  |  |  |  |  | 
27 | CC(C)(C)[Si](C)(C)O/N=C\c1cccc(O[Si](C)(C)C(C)(C)C)c1 | 41.7 | 38.5 | 36.6 | 46.7 | 31.9 | 28.8 | 35.4 | 36.8 | 37.4 |  |  |  |  |  |  |  |  | 
28 | COC(=O)c1ccc(N/C=C(/C#N)c2ccsc2)cc1 | > 100 | 37 |  | 32.3 | 19.9 |  | > 100 | > 100 | 40.3 |  |  |  |  |  |  |  |  | 
29 | COc1ccc(C2C(C(=O)O)=C(CO)Oc3cc4c(cc32)OCO4)c(OC)c1 (stereo not given) | > 100 |  | > 100 | > 100 | > 100 | > 100 | > 100 | > 100 | > 100 |  |  |  |  |  |  |  |  | 
30 | CC1=C(C(=O)NCc2ccccc2)C(c2ccc(N(C)C)cc2)C(C(=O)NCc2ccccc2)=C(C)N1 | > 100 |  | > 100 | > 100 | > 100 | > 100 | > 100 | > 100 | > 100 |  |  |  |  |  |  |  |  | 
